According to publication PMC11243685, “Synthesis and Enzymatic Evaluation of a Small Library of Substituted Phenylsulfonamido-Alkyl Sulfamates towards Carbonic Anhydrase II” (Molecules, 2024):

How the values were obtained:
[1] = target: T1, bovine carbonic anhydrase II (Bos taurus, UniProt P00921); assay: Enzymatic assay of bCA II inhibition, absorbance at 415 nm; assay type: biochemical; conditions: bCA II; 1 μM concentration of the inhibitor; triplicate with three technical replicas;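 further: enzyme is carbonic anhydrase II isolated from bovine erythrocytes, with its activity followed photometrically at 415 nm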
T1 construct: carbonic anhydrase II (bCAII, ≥3000 W-A units/mg from bovine erythrocytes) from Sigma; purchased Sigma (Taufkirchen, Germany); host or cells: isolated from bovine erythrocytes
T1 sequence (P00921 whole entry): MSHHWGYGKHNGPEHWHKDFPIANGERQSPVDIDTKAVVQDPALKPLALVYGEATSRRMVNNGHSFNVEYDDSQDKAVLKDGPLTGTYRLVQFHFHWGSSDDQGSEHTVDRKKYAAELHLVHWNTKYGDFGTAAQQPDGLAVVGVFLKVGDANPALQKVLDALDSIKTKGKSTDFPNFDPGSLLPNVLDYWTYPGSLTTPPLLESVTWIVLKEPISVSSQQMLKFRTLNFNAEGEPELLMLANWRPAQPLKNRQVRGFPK
Experimental: The enzymatic assays have been performed with carbonic anhydrase II (bCAII, ≥3000 W-A units/mg from bovine erythrocytes) from Sigma (Taufkirchen, Germany) using a BMG Labtech Spectrostar Omega apparatus (BMG Labtech, Ortenberg, Germany) measuring λ = 415 nm. Conditions have been described previously [72]. Ki and Ki′ values were determined from Lineweaver–Burk, Dixon and Cornish Bowden plots, respectively.

Row | SMILES | inhibition at 1 µM [1] [%] | melting point [°C]
1 | NS(=O)(=O)OCCCNS(=O)(=O)c1ccc(C2CCCCC2)cc1 [69b, 3-[(4-Cyclohexylphenyl)sulfonamido]propyl Sulfamate] | 43.1 ± 1.5 | 113 to 114
2 | NS(=O)(=O)OCCCCCCNS(=O)(=O)c1ccc(C2CCCCC2)cc1 [72b, 6-[(4-Cyclohexylphenyl)sulfonamido]hexyl Sulfamate] | 8.6 ± 0.6 | 86 to 88
3 | NS(=O)(=O)OCCCCCCCCCNS(=O)(=O)c1ccc(C2CCCCC2)cc1 [75b, 9-[(4-Cyclohexylphenyl)sulfonamido]nonyl Sulfamate] | 32.1 ± 0.8 | 88 to 89
4 | NS(=O)(=O)OCCCCCCCCNS(=O)(=O)c1ccc(C23CC4CC(CC(C4)C2)C3)cc1 [77b, 8-[(4-(Adamantan-1-yl)phenyl)sulfonamido]octyl Sulfamate] | 32.6 ± 0.4 | 85 to 86
5 | NS(=O)(=O)OCCCCCCCCCNS(=O)(=O)c1ccc(C23CC4CC(CC(C4)C2)C3)cc1 [78b, 9-[(4-(Adamantan-1-yl)phenyl)sulfonamido]nonyl Sulfamate] | 36.1 ± 1.8 | 94 to 96
6 | NS(=O)(=O)OCCCCCCCCCCNS(=O)(=O)c1ccc(C23CC4CC(CC(C4)C2)C3)cc1 [79b, 10-[(4-(Adamantan-1-yl)phenyl)sulfonamido]decyl Sulfamate] | 40.1 ± 0.8 | 87 to 89

Now from value to molecule:

Row | inhibition at 1 µM [1] [%] | melting point [°C] | SMILES
7 | 35.9 ± 0.4 | 88 to 89 | CC(C)(C)c1ccc(S(=O)(=O)NCCCCCOS(N)(=O)=O)cc1 [52b, 5-[(4-(tert-Butyl)phenyl)sulfonamido]pentyl Sulfamate]
8 | 29.1 ± 0.9 | 89 to 90 | CC(C)(C)c1ccc(S(=O)(=O)NCCCCCCOS(N)(=O)=O)cc1 [53b, 6-[(4-(tert-Butyl)phenyl)sulfonamido]hexyl Sulfamate]
9 | 28.4 ± 0.4 | 95 to 96 | CC(C)(C)c1ccc(S(=O)(=O)NCCCCCCCOS(N)(=O)=O)cc1 [54b, 7-[(4-(tert-Butyl)phenyl)sulfonamido]heptyl Sulfamate]
10 | 21.3 ± 1 | 79 to 81 | CC(C)(C)c1ccc(S(=O)(=O)NCCCCCCCCOS(N)(=O)=O)cc1 [55b, 8-[(4-(tert-Butyl)phenyl)sulfonamido]octyl Sulfamate]
11 | 10 ± 0.6 | 106 to 107 | CC(C)(C)c1ccc(S(=O)(=O)NCCCCCCCCCOS(N)(=O)=O)cc1 [56b, 9-[(4-(tert-Butyl)phenyl)sulfonamido]nonyl Sulfamate]
12 | 20.6 ± 0.6 | 92 to 93 | CC(C)(C)c1ccc(S(=O)(=O)NCCCCCCCCCCOS(N)(=O)=O)cc1 [57b, 10-[(4-(tert-Butyl)phenyl)sulfonamido]decyl Sulfamate]
13 | 16 ± 0.4 | 57 to 59 | CC(C)(C)c1cccc(S(=O)(=O)NCCCCCCCCOS(N)(=O)=O)c1 [64b, 8-[(3-(tert-Butyl)phenyl)sulfonamido]octyl Sulfamate]
